Test results from ChEMBL document CHEMBL4673296 (J Med Chem, 2020).
One block for each compound: values may come before it. Calls of active or inactive are those of the source. No cut-off for these calls is given here.

Columns and labels:
[1] = target: T1, Serine/threonine-protein kinase ULK1 (Homo sapiens, UniProt O75385); assay: Inhibition of ULK1 (unknown origin) expressed in HEK293T cells incubated for 2 hrs by NanoBRET assay; format: cell-based
T1 sequence (O75385 whole entry): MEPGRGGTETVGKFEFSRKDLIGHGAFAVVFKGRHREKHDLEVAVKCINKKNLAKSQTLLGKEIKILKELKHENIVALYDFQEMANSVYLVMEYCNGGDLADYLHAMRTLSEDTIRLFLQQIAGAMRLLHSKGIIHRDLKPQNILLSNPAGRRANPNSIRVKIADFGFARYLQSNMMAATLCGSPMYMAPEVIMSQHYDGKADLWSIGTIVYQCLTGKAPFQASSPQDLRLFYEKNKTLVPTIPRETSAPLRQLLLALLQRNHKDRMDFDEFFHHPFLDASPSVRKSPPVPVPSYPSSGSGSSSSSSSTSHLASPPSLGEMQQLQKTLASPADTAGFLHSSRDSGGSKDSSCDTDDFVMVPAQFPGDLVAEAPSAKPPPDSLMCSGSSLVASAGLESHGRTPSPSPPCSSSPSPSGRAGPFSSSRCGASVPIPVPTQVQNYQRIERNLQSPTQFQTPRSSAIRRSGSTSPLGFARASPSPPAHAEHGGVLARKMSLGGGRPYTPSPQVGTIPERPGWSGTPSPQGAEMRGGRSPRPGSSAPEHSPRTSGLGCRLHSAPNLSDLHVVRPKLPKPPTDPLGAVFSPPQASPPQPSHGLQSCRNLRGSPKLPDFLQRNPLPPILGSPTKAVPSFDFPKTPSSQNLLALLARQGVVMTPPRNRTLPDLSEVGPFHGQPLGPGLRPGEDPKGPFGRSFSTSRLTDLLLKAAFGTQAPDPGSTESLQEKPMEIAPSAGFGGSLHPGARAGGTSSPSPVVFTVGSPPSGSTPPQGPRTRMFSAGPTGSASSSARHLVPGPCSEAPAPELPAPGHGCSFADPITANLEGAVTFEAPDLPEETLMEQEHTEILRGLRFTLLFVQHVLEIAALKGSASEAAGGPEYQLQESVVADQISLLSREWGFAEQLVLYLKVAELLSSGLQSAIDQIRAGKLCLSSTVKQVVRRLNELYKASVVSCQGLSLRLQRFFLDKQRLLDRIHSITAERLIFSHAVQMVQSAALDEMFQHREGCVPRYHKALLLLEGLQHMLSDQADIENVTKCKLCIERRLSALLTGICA

[2] = target: T1, Serine/threonine-protein kinase ULK1; assay: Inhibition of recombinant human ULK1 (1-649) expressed in Sf9 cells using myelin basic protein as substrate by ADP-glo assay
[3] = test system: MDA-MB-468; assay: cells; conditions: Homo sapiens, MDA-MB-468, 72 h
Description: Cytotoxicity against human MDA-MB-468 cells measured after 72 hrs by Celltiter-Glo assay

[4] = Apparent permeability of the compound across apical side to basolateral side in human Caco2 cells; format: ADME, cell-based; conditions: Caco-2
[5] = Apparent permeability of the compound across basolateral side to apical side in human Caco2 cells; format: ADME, cell-based; conditions: Caco-2
[6] = target: T2, Serine/threonine-protein kinase ULK1 (Homo sapiens) (UniProt O75385); assay: Inhibition of Myc-tagged ULK1 (unknown origin) expressed in HEK293T cells cotransfected with wild-type Flag tagged Vps34 assessed as decrease in pVPS34 Ser249 at 10 uM measured after 1 hr by Western blot analysis relative to control; format: cell-based
T2 sequence (whole entry): T1 sequence (O75385 whole entry)

[7] = target: T2, Serine/threonine-protein kinase ULK1 (Homo sapiens); assay: Inhibition of Myc-tagged ULK1 (unknown origin) expressed in HEK293T cells cotransfected with wild-type Flag tagged Beclin-1 assessed as decrease in pBeclin1 Ser15 at 10 uM measured after 1 hr by Western blot analysis; format: cell-based
[8] = target: T3, Serine/threonine-protein kinase ULK2 (Homo sapiens, UniProt Q8IYT8); assay: Inhibition of recombinant human ULK2 (1 to 478 residues) expressed in Sf9 cells using myelin basic protein as substrate by ADP-glo assay
T3 sequence (Q8IYT8 whole entry): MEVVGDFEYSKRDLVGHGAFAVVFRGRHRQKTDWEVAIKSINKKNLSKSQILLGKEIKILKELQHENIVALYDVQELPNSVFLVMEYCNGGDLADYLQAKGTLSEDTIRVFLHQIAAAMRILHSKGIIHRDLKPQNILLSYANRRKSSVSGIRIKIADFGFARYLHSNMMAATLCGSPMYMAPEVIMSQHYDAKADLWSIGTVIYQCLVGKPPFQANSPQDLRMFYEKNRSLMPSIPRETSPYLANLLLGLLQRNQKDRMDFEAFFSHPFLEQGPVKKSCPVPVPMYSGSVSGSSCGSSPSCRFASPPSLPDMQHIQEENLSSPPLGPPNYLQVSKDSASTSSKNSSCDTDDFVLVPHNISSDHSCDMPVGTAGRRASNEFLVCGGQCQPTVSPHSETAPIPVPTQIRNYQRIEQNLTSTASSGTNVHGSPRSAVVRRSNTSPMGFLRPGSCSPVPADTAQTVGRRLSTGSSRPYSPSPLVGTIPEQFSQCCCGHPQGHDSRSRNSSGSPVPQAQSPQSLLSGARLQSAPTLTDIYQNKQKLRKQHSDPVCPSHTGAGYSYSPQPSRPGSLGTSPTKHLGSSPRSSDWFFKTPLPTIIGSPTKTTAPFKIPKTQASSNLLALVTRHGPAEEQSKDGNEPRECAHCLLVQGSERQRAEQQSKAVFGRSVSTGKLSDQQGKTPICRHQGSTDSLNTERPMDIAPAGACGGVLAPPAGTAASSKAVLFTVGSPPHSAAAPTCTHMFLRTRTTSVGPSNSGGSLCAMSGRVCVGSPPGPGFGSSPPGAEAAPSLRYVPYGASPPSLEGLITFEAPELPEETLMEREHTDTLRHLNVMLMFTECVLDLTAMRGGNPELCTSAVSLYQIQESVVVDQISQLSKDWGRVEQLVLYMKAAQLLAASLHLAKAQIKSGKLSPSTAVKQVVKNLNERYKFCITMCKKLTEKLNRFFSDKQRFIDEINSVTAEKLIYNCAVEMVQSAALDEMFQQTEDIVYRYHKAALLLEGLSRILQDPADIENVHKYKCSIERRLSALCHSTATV

[9] = target: T3, Serine/threonine-protein kinase ULK2; assay: Inhibition of ULK2 (unknown origin) expressed in HEK293T cells incubated for 2 hrs by NanoBRET assay; format: cell-based
[10] = Efflux ratio of apparent permeability from basolateral side to apical side over apical side to basolateral side in human Caco2 cells; format: ADME, cell-based; conditions: Caco-2
[11] = Inhibition of starvation-induced autophagic flux in human MDA-MB-468 cells expressing tandem-labelled mCherryEGFP-LC3 chimeric protein at 10 uM measured after 18 hrs in EBSS media by flow cytometry (Rvb >90%); format: functional
[12] = test system: MDA-MB-468; assay: Reduction in autophagosome accumulation in human MDA-MB-468 cells at 10 uM by transmission electron microscopic analysis; format: functional, cell-based

- IC50 [1]: > 10000 nM
- IC50 [2]: 21 nM
Structure (SMILES): FC(F)(F)c1cnc(Nc2ccc3c(c2)OCO3)nc1NC1CC1

- IC50 [1]: 1360 nM
- IC50 [2]: 3 nM
Structure (SMILES): O=C1CCCc2cc(Nc3ncc(C(F)(F)F)c(NC4CC4)n3)ccc21

- IC50 [1]: 1330 nM
- IC50 [2]: 13 nM
Structure (SMILES): O=C(Nc1ccc(Nc2ncc(C(F)(F)F)c(NC3CC3)n2)cc1)C1CC1

- IC50 [1]: 1610 nM
- IC50 [2]: 40 nM
Structure (SMILES): FC(F)(F)c1cnc(Nc2ccnnc2)nc1NC1CC1

- IC50 [1]: 4480 nM
- IC50 [2]: 14 nM
Structure (SMILES): FC(F)(F)c1cnc(Nc2ccc3c(c2)OCCO3)nc1NC1CC1

- IC50 [1]: > 10000 nM
- IC50 [2]: 42 nM
Structure (SMILES): FC1(F)Oc2ccc(Nc3ncc(C(F)(F)F)c(NC4CC4)n3)cc2O1

- IC50 [1]: 1170 nM
- IC50 [2]: 6 nM
Structure (SMILES): FC(F)(F)c1cnc(Nc2ccc3nn[nH]c3c2)nc1NC1CC1

- IC50 [1]: > 10000 nM
- IC50 [2]: 17 nM
Structure (SMILES): FC(F)(F)c1cnc(Nc2cnc3[nH]ccc3c2)nc1NC1CCC1

- IC50 [1]: 9840 nM
- IC50 [2]: 23 nM
Structure (SMILES): FC(F)(F)c1cnc(Nc2ccc3[nH]ccc3c2)nc1NC1CC1

- IC50 [3]: 7600 nM
Structure (SMILES): NC(=O)c1cccc2cn(-c3ccc([C@@H]4CCCNC4)cc3)nc12 [NIRAPARIB]

- Papp A→B [4]: > 10 ×10⁻⁶ cm/s
- Papp B→A [5]: > 10 ×10⁻⁶ cm/s
Structure (SMILES): Oc1ccccc1Nc1ncc(C(F)(F)F)c(NC2CC2)n1

- IC50 [1]: 1210 nM
- IC50 [2]: 31 nM
Structure (SMILES): CCN1CCOc2cc(Nc3ncc(C(F)(F)F)c(NC4CC4)n3)cnc21

- inhibition [6]: 70%
- inhibition [7]: Active
- Papp A→B [4]: > 10 ×10⁻⁶ cm/s
- IC50 [8]: 695 nM
- Papp B→A [5]: > 10 ×10⁻⁶ cm/s
- IC50 [9]: 1890 nM
Structure (SMILES): COc1cncc(Nc2ncc(C(F)(F)F)c(NC3CC3)n2)c1

- IC50 [1]: 1600 nM
- efflux ratio [10]: < 2
- Papp A→B [4]: > 10 ×10⁻⁶ cm/s
- IC50 [2]: 7 nM
- Papp B→A [5]: > 10 ×10⁻⁶ cm/s
Structure (SMILES): FC(F)(F)c1cnc(Nc2ccc3c(c2)OCCCO3)nc1NC1CC1

- IC50 [1]: 1710 nM
- IC50 [2]: 30 nM
Structure (SMILES): O=C(C1CC1)N(C(=O)C1CC1)c1ccc(Nc2ncc(C(F)(F)F)c(NC3CC3)n2)cc1

- IC50 [1]: 3630 nM
- IC50 [2]: 34 nM
Structure (SMILES): CNc1nc(Nc2cnc3[nH]ccc3c2)ncc1C(F)(F)F

- inhibition [6]: 70%
- inhibition [7]: Active
- Papp A→B [4]: > 10 ×10⁻⁶ cm/s
- IC50 [8]: 720 nM
- Papp B→A [5]: > 10 ×10⁻⁶ cm/s
- IC50 [9]: 703 nM
Structure (SMILES): FC(F)(F)c1cnc(Nc2ccc3nc[nH]c3c2)nc1NC1CC1

- IC50 [1]: > 10000 nM
- IC50 [2]: 230 nM
Structure (SMILES): Nc1nc(Nc2ccc3c(c2)OCO3)ncc1C(F)(F)F

- inhibition [6]: 70%
- IC50 [1]: 1020 nM
- efflux ratio [10]: < 2
- inhibition [7]: Active
- Papp A→B [4]: > 10 ×10⁻⁶ cm/s
- IC50 [2]: 19 nM
- IC50 [8]: 1190 nM
- Papp B→A [5]: > 10 ×10⁻⁶ cm/s
- IC50 [9]: 4260 nM
Structure (SMILES): FC(F)(F)c1cnc(Nc2ccc3ncoc3c2)nc1NC1CC1

- inhibition [6]: 70%
- IC50 [1]: 739 nM
- efflux ratio [10]: < 2
- inhibition [7]: Active
- Papp A→B [4]: > 10 ×10⁻⁶ cm/s
- IC50 [2]: 5 nM
- IC50 [8]: 714 nM
- Papp B→A [5]: > 10 ×10⁻⁶ cm/s
- IC50 [9]: 1650 nM
Structure (SMILES): FC(F)(F)c1cnc(Nc2ccc3ncccc3c2)nc1NC1CC1

- IC50 [1]: 1930 nM
- IC50 [2]: 29 nM
Structure (SMILES): FC(F)(F)c1cnc(Nc2cnc3[nH]ccc3c2)nc1NC1CC1

Structure (SMILES): CNC(=O)c1ccccc1Oc1nc(Nc2cc(OC)c(OC)c(OC)c2)ncc1Br
- inhibition at 10 µM [11]: 10%
- inhibition [12]: Active
- IC50 [8]: 2450 nM
- IC50 [9]: 4580 nM

- inhibition [6]: 70%
- IC50 [1]: 679 nM
- efflux ratio [10]: < 2
- inhibition [7]: Active
- Papp A→B [4]: > 10 ×10⁻⁶ cm/s
- IC50 [2]: 20 nM
- IC50 [8]: 1330 nM
- Papp B→A [5]: > 10 ×10⁻⁶ cm/s
- IC50 [9]: 1690 nM
Structure (SMILES): Nc1ccc(Nc2ncc(C(F)(F)F)c(NC3CC3)n2)cc1

- IC50 [1]: > 10000 nM
- IC50 [2]: 16 nM
Structure (SMILES): FC(F)(F)c1cnc(Nc2cnc3ccccc3c2)nc1NC1CC1
